Results from patent US10227345B2, “Compounds and methods for inhibiting fascin” (Cornell University, priority 2014, dated 2019).

Target: T1, human fascin 1 (Homo sapiens, UniProt Q16658)
T1 construct: GST (N, cleaved yes); made in house; host or cells: Escherichia coli BL21/DE3 (pGEX4T-fascin 1 plasmid)
Experiment: Fascin inhibition (actin bundling) assay, image-based
Assay type: biochemical
Settings: in the presence of 50 μm of the compound relative to bundle activity when the compound was not present; read-out: Inhibition (percentage reduction of bundle activity)
Protocol: Recombinant human fascin 1 was expressed as a GST fusion protein in BL21 Escherichia coli. One liter of 2YT medium with ampicillin was inoculated overnight with 3 mL of BL21/DE3 culture transformed with pGEX4T-fascin 1 plasmid and grown at 37° C. until attenuance at 600 nm (D600) reached about 0.8. The culture was then transferred to 18° C. and induced by the addition of 0.1 mM isopropyl β-d-thiogalactoside (IPTG) for 12 h. Bacteria were harvested by centrifugation at 5,000 r.p.m. for 10 min. The pellets were suspended in 30 mL of PBS supplemented with 0.2 mM PMSF, 1 mM DTT, 1% (v/v) Triton X-100 and 1 mM EDTA. After sonication, the suspension was centrifuged at 15,000 r.p.m. for 30 min to remove the cell debris. The supernatant was then incubated for 2 h with 4 mL of glutathione beads (Sigma) at 4° C. After extensive washing with PBS, the beads were resuspended in 10 mL of thrombin cleavage buffer (20 mM Tris-HCl pH 8.0, 150 mM NaCl, 2 mM CaCl2, 1 mM DTT). Fascin was released from the beads by incubation overnight with 40-100 U of thrombin at 4° C. After centrifugation, 0.2 mM PMSF was added to the supernatant to inactivate the remnant thrombin activity. The fascin protein was further concentrated with a Centricon® (Boca Raton, Fla.) filter to about 50 mg/mL.
Representative compounds described herein were tested for fascin inhibition activity. Purified fascin protein (15 μL of 0.5 μM) in buffer (100 mM KCl, 20 mM Tris/HCl, pH 7.5, 2 mM MgCl2) was added into each well of a clear 384-well flat-bottom plate (Corning) using Thermo Multidrop Combi (Fisher). Compound solutions (5 mM stock, 180 nL) were pin transferred from stock 384-well plates into the 384-well assay plates and incubated for 30 min. Then 15 μL of 0.5 μM polymerized actin (in 100 mM KCl, 20 mM Tris/HCl, pH 7.5, 2 mM MgCl2, 1 mM DTT, 1 mM ATP) (Cytoskeleton Inc.) was added, resulting in 30 μM final concentration for chemical compounds. […] Mixed solution (25 μL) was then transferred to one well in a black 384-well plate coated with poly-D-lysine, and stained actin bundles or F-actin would stick onto the poly-D-lysine plates. After the plates were thoroughly washed with 1×PBS for 3 times, the plate was imaged using an ImageXpress Micro High Content Screening System (Molecular devices). The images were processed and analyzed using MetaMorph software. The raw image data for each well was background-corrected by subtraction of the median intensities across all wells on the plate. The background-corrected data was used to compute the bundle length for each well. The negative control wells were employed for quality control: multiple DMSO-only control wells (16 wells/plate) were present on each assay plate.

Structure (SMILES)	inhibition at 50 µM
O=C(Nc1nn(Cc2ccc(C(F)(F)F)cc2)c2ccccc12)c1cc(Cl)ccn1 [Compound 18]	< 10%
Cc1ncsc1C(=O)Nc1nn(Cc2ccc(Cl)cc2)c2ccccc12 [Compound 68, N-(1-(4-chlorobenzyl)-1H-indazol-3-yl)-4-methylthiazole-5-carboxamide]	50%
Cc1occc1C(=O)Nc1nn(Cc2ccc(C#N)cc2)c2ccccc12 [Compound 88, N-(1-(4-cyanobenzyl)-1H-indazol-3-yl)-2-methylfuran-3-carboxamide]	< 10%
Nc1nn(Cc2ccc(C(F)(F)F)cc2)c2cc(C(F)(F)F)ccc12 [Compound 106, 6-(trifluoromethyl)-1-(4-(trifluoromethyl)benzyl)-1H-indazol-3-amine]	< 10%
Cc1ncsc1C(=O)Nc1nn(Cc2ccc(C(F)(F)F)cc2)c2c(C(F)(F)F)cccc12 [Compound 115, 4-methyl-N-(7-(trifluoromethyl)-1-(4-(trifluoromethyl)benzyl)-1H-indazol-3-yl)thiazole-5-carboxamide]	< 10%
FC(F)(F)c1ccc(CNc2nn(Cc3ccc(C(F)(F)F)cc3)c3ccccc23)cc1 [Compound 22, N,1-bis(4-(trifluoromethyl)benzyl)-1H-indazol-3-amine]	< 10%
Cc1nocc1C(=O)Nc1nn(Cc2ccc(C(F)(F)F)cc2)c2c(C(F)(F)F)cccc12 [Compound 113, 3-methyl-N-(7-(trifluoromethyl)-1-(4-(trifluoromethyl)benzyl)-1H-indazol-3-yl)isoxazole-4-carboxamide]	< 10%
Cc1ccc2c(NC(=O)c3scnc3C)nn(Cc3ccc(C(F)(F)F)cc3)c2n1 [Compound 135, 4-methyl-N-(6-methyl-1-(4-(trifluoromethyl)benzyl)-1H-pyrazolo[3,4-b]pyridin-3-yl)thiazole-5-carboxamide]	< 10%
Cc1ccc(Cn2nc(NC(=O)c3ccoc3C)c3ccccc32)cc1 [Compound 81, 2-methyl-N-(1-(4-methylbenzyl)-1H-indazol-3-yl)furan-3-carboxamide]	< 10%
O=C(Nc1nn(Cc2ccc(C(F)(F)F)cc2)c2ccc(C(F)(F)F)cc12)c1ccoc1 [Compound 123, N-(5-(trifluoromethyl)-1-(4-(trifluoromethyl)benzyl)-1H-indazol-3-yl)furan-3-carboxamide]	< 10%
Cc1nocc1C(=O)Nc1nn(Cc2ccc(C(F)(F)F)nc2)c2ccc(C#N)cc12 [Compound 99, N-(5-cyano-1-((6-(trifluoromethyl)pyridin-3-yl)methyl)-1H-indazol-3-yl)-3-methylisoxazole-4-carboxamide]	< 10%
O=C(Nc1nn(Cc2ccc(Cl)cc2)c2ccccc12)c1cccnn1 [Compound 69, N-(1-(4-chlorobenzyl)-1H-indazol-3-yl)pyridazine-3-carboxamide]	50%
Cc1cnoc1C(=O)Nc1nn(Cc2ccc(C(F)(F)F)cc2)c2ccccc12 [Compound 28, 4-methyl-N-(1-(4-(trifluoromethyl)benzyl)-1H-indazol-3-yl)isoxazole-5-carboxamide]	80%
O=C(Nc1nn(Cc2ccc(C(F)(F)F)cc2)c2ccccc12)c1cscc1Br [Compound 42, 4-bromo-N-(1-(4-(trifluoromethyl)benzyl)-1H-indazol-3-yl)thiophene-3-carboxamide]	< 10%
Cc1nocc1C(=O)Nc1nn(Cc2ccc(F)cc2)c2ccccc12 [Compound 72, N-(1-(4-fluorobenzyl)-1H-indazol-3-yl)-3-methylisoxazole-4-carboxamide]	< 10%
Cc1ncsc1C(=O)Nc1nn(Cc2ccc(C(F)(F)F)cc2)c2cccc(Cl)c12 [Compound 120, N-(4-chloro-1-(4-(trifluoromethyl)benzyl)-1H-indazol-3-yl)-4-methylthiazole-5-carboxamide]	< 10%
O=C(Nc1nn(Cc2ccc(CO)cc2)c2ccccc12)c1ccoc1 [Compound 104, N-(1-(4-(hydroxymethyl)benzyl)-1H-indazol-3-yl)furan-3-carboxamide]	< 10%
Cc1occc1C(=O)Nc1nn(Cc2ccc(C(F)(F)F)nc2)c2ccccc12 [Compound 94, 2-methyl-N-(1-((6-(trifluoromethyl)pyridin-3-yl)methyl)-1H-indazol-3-yl)furan-3-carboxamide]	< 10%

The remaining lines, values ahead:

inhibition at 50 µM	Structure (SMILES)
< 10%	O=C(Nc1nn(Cc2ccc(C(F)(F)F)cc2)c2cc(C(F)(F)F)ccc12)c1ccoc1 [Compound 107, N-(6-(trifluoromethyl)-1-(4-(trifluoromethyl)benzyl)-1H-indazol-3-yl)furan-3-carboxamide]
< 10%	Cc1cc[nH]c1C(=O)Nc1nn(Cc2ccc(C(F)(F)F)cc2)c2ccccc12 [Compound 27, 3-methyl-N-(1-(4-(trifluoromethyl)benzyl)-1H-indazol-3-yl)-1H-pyrrole-2-carboxamide]
< 10%	O=C(Nc1nn(Cc2ccc(C(F)(F)F)nc2)c2ccccc12)c1cccnn1 [Compound 96, N-(1-((6-(trifluoromethyl)pyridin-3-yl)methyl)-1H-indazol-3-yl)pyridazine-3-carboxamide]
< 10%	O=C(Nc1nn(Cc2ccc(C(F)(F)F)cc2)c2ccccc12)c1cccc(F)c1F [Compound 20, 2,3-difluoro-N-(1-(4-(trifluoromethyl)benzyl)-1H-indazol-3-yl)benzamide]
< 10%	O=C(Nc1nn(Cc2ccc(C(F)(F)F)cc2)c2ccccc12)c1ccccc1OC(F)F [Compound 47, 2-(difluoromethoxy)-N-(1-(4-(trifluoromethyl)benzyl)-1H-indazol-3-yl)benzamide]
< 10%	Cc1ccccc1C(=O)Nc1nn(Cc2ccc(C(F)(F)F)cc2)c2ccccc12 [Compound 15, 2-methyl-N-(1-(4-(trifluoromethyl)benzyl)-1H-indazol-3-yl)benzamide]
< 10%	Cc1ccc2c(NC(=O)c3cccnn3)nn(Cc3ccc(C(F)(F)F)nc3)c2n1 [Compound 136, N-(6-methyl-1-((6-(trifluoromethyl)pyridin-3-yl)methyl)-1H-pyrazolo[3,4-b]pyridin-3-yl)pyridazine-3-carboxamide]
< 10%	Cc1nocc1C(=O)Nc1nn(Cc2ccc(C(F)(F)F)cc2)c2ccc(C(F)(F)F)cc12 [Compound 124, 3-methyl-N-(5-(trifluoromethyl)-1-(4-(trifluoromethyl)benzyl)-1H-indazol-3-yl)isoxazole-4-carboxamide]
10%	O=C(Nc1nn(Cc2ccc(C(F)(F)F)cc2)c2ccccc12)c1ccc(Cl)cc1 [Compound 6, 4-chloro-N-(1-(4-(trifluoromethyl)benzyl)-1H-indazol-3-yl)benzamide]
< 10%	O=C(Nc1nn(Cc2ccc(C(F)(F)F)nc2)c2cccc(Cl)c12)c1cccnn1 [Compound 121, N-(4-chloro-1-((6-(trifluoromethyl)pyridin-3-yl)methyl)-1H-indazol-3-yl)pyridazine-3-carboxamide]
< 10%	Cc1occc1C(=O)Nc1nn(Cc2ccc(C(F)(F)F)nc2)c2ccc(C#N)cc12 [Compound 100, N-(5-cyano-1-((6-(trifluoromethyl)pyridin-3 - yl)methyl)-1H-indazol-3-yl)-2-methylfuran-3-carboxamide]
